Entries after “also recorded” stand apart in the source; their conditions may differ.

These results are taken from patent US20040194155A1, “HBV mutations associated with reduced susceptibility to adefovir” (priority 2002, published 2004).

The test system of test [1] is rtN236T mutant HBV (patient-derived clones). In words: Whole HBV genome cell culture assay (HepG2 transient transfection), rtN236T clones. It is filed as cell-based, hepatitis B virus. The conditions noted are these: for IC50 Fold Change (rtN236T/Wild-type): patient-derived HBV strain, rtN236T vs wild-type (Table 7); for susceptibility of rtN236T mutant (in words): in vitro.

Test [2] concerns rtK241E + rtK318Q mutant HBV (patient-derived clones). Kind of test: Whole HBV genome cell culture assay (HepG2 transient transfection), rtK241E + rtK318Q clones. Conditions: in vitro, patient 0370-3503.
Procedure: All conserved site substitutions were evaluated for their effects on adefovir susceptibility using a novel approach to generate full-length patient-derived HBV clones. […] Full-length viral genomes were cloned into the lethal selection vector pCAP^s at a Mlu Nl site through blunt-end ligation (PCR Cloning Kit, Roche) and then subcloned into plasmid pHY106, a pBluescript KS (+)-derived plasmid containing a CMV promoter and the minimal 5′ and 3′ HBV sequence necessary (approximately 180 total bases) for viral replication after the insertion of a genome-length clinical HBV isolate. Drug susceptibility of patient-derived clones was analyzed by transient transfection into HepG2 cells.
To investigate if these conserved site mutations conferred resistance to adefovir, adefovir susceptibility of HBV isolates derived from the above five patients was evaluated using a whole HBV genome cell culture assay as described above.
Test [3] relates to wild-type HBV (patient-derived baseline clones). Kind of test: Whole HBV genome cell culture assay: patient-derived HBV clones transiently transfected into HepG2 cells, 7 days drug, Southern blot of intracellular replicating virus DNA. It is filed as cell-based, hepatitis B virus. Conditions: adefovir, patient-derived HBV (0454-2506), reference.
Test [4] has as its system Lab HBV strain, rtA181T mutant. Kind of test: In vitro adefovir susceptibility of HBV lab strain with introduced rtA181T. It is filed as cell-based, hepatitis B virus. The text has this:
(§1) One patient (0454-2506) with the rtN236T mutation also developed a second conserved site mutation rtA181T at week 96. However, all week 96 isolates derived from the patient encoding both rtN236T and rtA181T were replication deficient in vitro; the reason for this is unclear. To assess the adefovir sensitivity of HBV containing both rtN236T and rtA181Tmutations, an artificial construct was obtained by modifying an existing patient-derived HBV clone. The rtA181T mutation was introduced by site-directed mutagenesis into replicating HBV clones from patient 0454-2506 that already encoded rtN236T. The resulting double mutants were replication competent and were used for adefovir susceptibility testing. […] The rtA181T mutation was also introduced into a standard HBV lab strain (genotyped, ayw) to assess the individual contribution of the rtA181T mutation.

Test [5] has as its system rtN236T + rtA181T double mutant HBV. Kind of test: Whole HBV genome cell culture assay, rtA181T introduced by site-directed mutagenesis into rtN236T clones of patient 0454-2506. It is filed as cell-based, hepatitis B virus. Conditions: adefovir, patient-derived HBV (0454-2506).
Text: as §1

The next test concerns HBV. In words: Phase 3 clinical study GS-98-438, HBeAg negative chronic hepatitis B patients. It is filed as in vivo, human. The procedure:
The median serum HBV DNA levels declined by 3.5 and 3.9 log10 copies/mL from baseline to week 48 in the ADV 10 mg dose groups in HBeAg positive (Study GS-98-437) and in HBeAg negative (Study GS-98-438) chronic hepatitis B patients, respectively.
Adefovir resistance surveillance was performed in a blinded manner in HBeAg negative chronic hepatitis B patients treated for 96 weeks in a Phase 3 double-blind, randomized, placebo-controlled clinical study (GS-98-438) of adefovir dipivoxil 10 mg (ADV). The analysis included 79 patients who received ADV 10 mg daily for the first 48 weeks and were randomized to also receive ADV 10 mg during the second 48 weeks.
The reverse transcriptase (RT) domain of the HBV polymerase gene (rt1 to rt344) was sequenced for HBV DNA extracted from baseline and week 96 serum samples (or the last on-study sample) for the 79 patients treated continuously with ADV for 96 weeks if the samples had detectable serum HBV DNA (≧1000 copies/mL by Roche Amplicor™ PCR assay) at the time points tested.
Study GS-98-438 is a randomized, double-blind, placebo-controlled Phase 3 clinical study of the safety and efficacy of ADV for the treatment of patients with HBeAg negative/anti-HBe positive/HBV DNA positive chronic hepatitis B. A total of 184 patients received at least one dose of study medication during the first 48 weeks (n=61 and 123 for the placebo and ADV 10 mg groups, respectively). During the second 48 weeks, all placebo patients switched to ADV 10 mg daily while the ADV-treated patients were re-randomized to either continue ADV or receive placebo at a 2:1 ratio. Accordingly, all patients who received at least one dose of study drug during the second 48 weeks are classified into three groups: PLB-ADV (n=60), ADV-ADV (n=79), and ADV-PLB (n=40).
A virology substudy of Study GS-98-438 included all patients in the ADV 10 mg-ADV 10 mg group (n=79). The RT domain of the HBV polymerase gene from banked serum samples from these patients was genotypically analyzed at baseline, and either at week 96, or upon early termination during the second 48 weeks.
If the week 96 serum HBV DNA value was not available for a patient, the closest serum HBV DNA value prior to week 96 was used. All week 96 and the last on-drug samples are referred to as week 96 samples hereafter. Note that Roche Molecular Systems raised the lower limit of quantification of the HBV DNA PCR assay from 400 copies/mL to 1,000 copies/mL after Gilead completed the week 48 analyses for study 438.

For `COc1ccc(Sc2nc(N)nc3c2ncn3CCOCP(=O)(OCC(F)(F)F)OCC(F)(F)F)cc1` [MCC-478], in test [1], the “IC50 Fold Change (rtN236T/Wild-type)” value turned out to be 8.6 fold.
The same measure, in the same setting: as for `C[C@H](Cn1cnc2c(N)ncnc21)OCP(=O)(O)O` [Tenofovir, tenofovir], the figure is 4.2 fold.
Regarding `Nc1ncnc2c1ncn2CCOCP(=O)(O)O` [Adefovir, adefovir], the “susceptibility of rtK241E + rtK318Q double mutant (in words)” value in test [2] is given as “not associated with resistance; also recorded: remained fully susceptible”. Besides, the “IC50 Fold Change from Wild-Type” value in test [3] was 1 fold; in test [5], 2.5 fold. The “resistance conferred by rtA181T mutation (in words)” value in test [4] was “did not confer resistance; also recorded: does not confer resistance”. In addition, in test [1], the “IC50 Fold Change (rtN236T/Wild-type)” value is 9.6 fold. For the same compound, the “reduction in serum HBV DNA” value in the test on HBV (patient 0370-3503 (rtK241E + rtK318Q), week 96) is given as > 5 log10. Also, the “serum HBV DNA” value in the test with HBV (patient 0370-3503, week 96) amounted to 3.1 log10 copies/mL; with HBV (patient 0370-3503, week 156 (February of 2003)), 3.6 log10 copies/mL.
Regarding `C=C1[C@H](CO)[C@@H](O)C[C@@H]1n1cnc2c(=O)[nH]c(N)nc21` [Entecavir, entecavir], in test [1], the “susceptibility of rtN236T mutant (in words)” value was “remained susceptible” and the “IC50 Fold Change (rtN236T/Wild-type)” value came to 0.67 fold.
`CC(C)(C)C(=O)OCOP(=O)(COCCn1cnc2c(N)ncnc21)OCOC(=O)C(C)(C)C` [ADV, adefovir dipivoxil]: in the test with HBV (of 79 patients on ADV 10 mg for 96 weeks, Roche Amplicor PCR), the “number of patients with HBV DNA < 1000 copies/mL at week 96” value was found to be 58.
In the case of `Cc1cn([C@@H]2C[C@@H](O)[C@H](CO)O2)c(=O)[nH]c1=O` [L-dT], in test [1], the “susceptibility of rtN236T mutant (in words)” value was “remained susceptible” and the “IC50 Fold Change (rtN236T/Wild-type)” value is on record as 2.4 fold.
